Data as given in patent US4220755A, “Fortimicin B derivatives and process for production thereof” (Abbott Laboratories, priority 1976, dated 1980).
Values after ≈ are worked out from the molar mass of the structure shown. Like-named read-outs stand apart in the source and are kept apart here.

Tests used:
Escherichia coli NIHTC-2 = assay: MIC, agar dilution method, pH 7.2; type: cell-based
Procedure: (§1) Measurement was carried out according to the agar dilution method, using a medium of pH 8.0, or the Japanese Antibiotic Medicament Standard, using a medium of pH 7.2 Units are in mcg/ml.

[1] = tested on: Eschericihia coli GN2411-5; assay: MIC, agar dilution method, pH 7.2; type: cell-based; settings: Escherichia coli
Procedure: as §1

[2] = tested on: Klebsiella pneumoniae KY4274; assay: MIC, agar dilution method, pH 7.2; type: cell-based; settings: Klebsiella pneumoniae, KY4274, pH 7.2, read-out: Minimum inhibition concentration (MIC)
Procedure: as §1

Proteus vulgaris JJ = assay: MIC, agar dilution method, pH 7.2; type: cell-based; settings: Proteus vulgaris, pH 7.2, read-out: Minimum inhibition concentration (MIC)
Procedure: as §1

[3] = tested on: Pseudomonas aeruginosa BMH# 1; assay: MIC, agar dilution method, pH 7.2; type: cell-based
Procedure: as §1

[4] = tested on: Pseudomonas aeruginosa UCLA 4184; assay: MIC, agar dilution method, pH 7.2; type: cell-based
Procedure: as §1

[5] = tested on: Salmonella enteritidis G-14; assay: MIC, agar dilution method, pH 7.2; type: cell-based; settings: Salmonella enterica
Procedure: as §1

Shigella sonnei ATCC9290 = assay: MIC, agar dilution method, pH 7.2; type: cell-based; settings: read-out: Minimum inhibition concentration (MIC)
Procedure: as §1

[6] = tested on: Staphylococcus aureus 209-P; assay: MIC, agar dilution method, pH 7.2; type: cell-based
Procedure: as §1

[7] = tested on: Staphylococcus aureus Smith (A); assay: MIC, agar dilution method, pH 7.2; type: cell-based
Procedure: as §1

[8] = tested on: Staphylococcus a ureus 226; assay: MIC, agar dilution method, pH 7.2; type: cell-based, Staphylococcus aureus
Procedure: as §1

Eschericihia coli 3100 = assay: MIC, agar dilution method, pH 7.2; type: cell-based, Escherichia coli; settings: Escherichia coli, 3100, pH 7.2, read-out: Minimum inhibition concentration (MIC)
Procedure: as §1

[9] = tested on: Escherichia coli 57R/W677; assay: MIC, agar dilution method, pH 7.2; type: cell-based; settings: 57R/W677, pH 7.2, read-out: Minimum inhibition concentration (MIC)
Procedure: as §1
(§2) **1: gentamicin, producing adenylsynthetase.

Escherichia coli 76-2 = assay: MIC, agar dilution method, pH 7.2; type: cell-based; settings: Escherichia coli, 762; pH 7.2; E. coli 76-2; 1**: gentamicin, producing adenylsynthetase; read-out: Minimum inhibition concentration (MIC)
Procedure: as §1, §2

[10] = tested on: Escherichia coli R12 Z-338; assay: MIC, agar dilution method, pH 7.2; type: cell-based
Procedure: as §1, §2

[11] = tested on: Klebsiella pneumoniae 3020 Y-60; assay: MIC, agar dilution method, pH 7.2; type: cell-based
Procedure: as §1, §2

[12] = tested on: Escherichia coli R18 KY8321; assay: MIC, agar dilution method, pH 7.2; type: cell-based; settings: R18KY8321, E. coli R18 KY8321, 2**: gentamicin, producing adenylsynthetase and neomycin phosphotransferase type II, read-out: Minimum inhibition concentration (MIC)
Procedure: as §1
2: gentamicin, producing adenylsynthetase and neomycin phosphotransferase

[13] = tested on: Escherichia coli R17 Z343; assay: MIC, agar dilution method, pH 7.2; type: cell-based; settings: R17Z343, pH 7.2, E. coli R17 Z343, 3**: kanamycin, producing acetyltransferase, read-out: Minimum inhibition concentration (MIC)
Procedure: as §1
(§3) 3: kanamycin, producing acetyltransferase.

[14] = tested on: Pseudomonas aeruginosa R9 KY8516; assay: MIC, agar dilution method, pH 7.2; type: cell-based
Procedure: as §1, §3

Serratia marcescens 1065 = assay: MIC, agar dilution method, pH 7.2; type: cell-based; settings: Serratia marcescens, 1065, pH 7.2, read-out: Minimum inhibition concentration (MIC)
Procedure: as §1, §3

[15] = tested on: Escherichia coli R19 KY8348; assay: MIC, agar dilution method, pH 7.2; type: cell-based
Procedure: as §1
(§4) 4: gentamicin, producing acetyltransferase type I.

[16] = tested on: Pseudomonas aeruginosa R4 KY8511; assay: MIC, agar dilution method, pH 7.2; type: cell-based
Procedure: as §1, §4

[17] = tested on: Escherichia coli R20 KY8349; assay: MIC, agar dilution method, pH 7.2; type: cell-based; settings: R20KY8349, pH 7.2, E. coli R20 KY8349, 5**: neomycin, producing phosphotransferase type I, read-out: Minimum inhibition concentration (MIC)
Procedure: as §1
5: neomycin, producing phosphotransferase type I.

[18] = tested on: Pseudomonas aeruginosa R5 KY8512; assay: MIC, agar dilution method, pH 7.2; type: cell-based
Procedure: as §1
6: neomycin, producing phosphotransferase type I and type II.

Providencia sp 164 = assay: MIC, agar dilution method, pH 7.2; type: cell-based; settings: pH 7.2; Providencia sp 164; 7**: gentamicin, producing acetyltransferase type II; read-out: Minimum inhibition concentration (MIC)
Procedure: as §1
7: gentamicin, producing acetyltransferase type II.

[19] = tested on: Staphylococcus aureus KY4279 ATCC6538P; assay: MIC, agar dilution method, pH 8.0; type: cell-based; settings: pH 8.0, Staphylococcus aureus KY4279, read-out: Minimum inhibition concentration (MIC), SA
Procedure: as §1
S.A.: Staphylococcus aureus KY4279 ATCC6538P

Bacillus subtilis KY4273 = assay: MIC, agar dilution method, pH 8.0; type: cell-based; settings: pH 8.0; Bacillus subtilis KY4273; read-out: Minimum inhibition concentration (MIC), BS
Procedure: as §1
B.S.: Bacillus subtilis KY4273

[20] = tested on: Eschericia coli KY4271 ATCC26; assay: MIC, agar dilution method, pH 8.0; type: cell-based; settings: Escherichia coli, ATCC26; pH 8.0; E. coli KY4271; read-out: Minimum inhibition concentration (MIC), EC
Procedure: as §1
E.C.: Eschericia coli KY4271 ATCC26

[21] = tested on: Proteus vulgaris KY4277 ATCC6897; assay: MIC, agar dilution method, pH 8.0; type: cell-based; settings: ATCC6897; pH 8.0; Proteus vulgaris KY4277; read-out: Minimum inhibition concentration (MIC), PV
Procedure: as §1

[22] = tested on: Shigella sonnei KY4281 ATCC9290; assay: MIC, agar dilution method, pH 8.0; type: cell-based; settings: Shigella sonnei, ATCC9290, pH 8, read-out: Minimum inhibition concentration (MIC), SS
Procedure: as §1

[23] = tested on: Salmonella typhosa KY4278 ATCC9992; assay: MIC, agar dilution method, pH 8.0; type: cell-based; settings: Salmonella enterica, pH 8, read-out: Minimum inhibition concentration (MIC), ST
Procedure: as §1
S.T.: Salmonella typhosa KY4278 ATCC9992

[24] = tested on: Klebsiella pneumoniae KY4275 ATCC10031; assay: MIC, agar dilution method, pH 8.0; type: cell-based; settings: ATCC10031; pH 8.0; Klebsiella pneumoniae KY4275; read-out: Minimum inhibition concentration (MIC), KP
Procedure: as §1
K.P.: Klebsiella pneumoniae KY4275 ATCC10031.

CO[C@H]1[C@@H](O)[C@H](N)[C@@H](O[C@H]2O[C@H]([C@H](C)N)CC[C@H]2N)[C@H](O)[C@@H]1N(C)CCN [Compound 15, 4-N-(2-aminoethyl)fortimicin B]
MIC (Escherichia coli NIHTC-2; NIHTC2, pH 7.2, Escherichia coli NIHTC-2, read-out: Minimum inhibition concentration (MIC)): 3.12 µg/mL (≈ 7.97 µM)
MIC ([1]; pH 7.2, E. coli GN2411-5, read-out: Minimum inhibition concentration (MIC)): 3.12 µg/mL (≈ 7.97 µM)
MIC [2]: 6.25 µg/mL (≈ 16 µM)
MIC (Proteus vulgaris JJ): 6.25 µg/mL (≈ 16 µM)
MIC ([3]; pH 7.2, Pseudomonas aeruginosa BMH# 1, read-out: Minimum inhibition concentration (MIC)): 12.5 µg/mL (≈ 31.9 µM)
MIC ([4]; UCLA4184, pH 7.2, Pseudomonas aeruginosa UCLA 4184, read-out: Minimum inhibition concentration (MIC)): 12.5 µg/mL (≈ 31.9 µM)
MIC ([5]; pH 7.2, Salmonella enteritidis G-14, read-out: Minimum inhibition concentration (MIC)): 25 µg/mL (≈ 63.9 µM)
MIC (Shigella sonnei ATCC9290): 6.25 µg/mL (≈ 16 µM)
MIC ([6]; pH 7.2, Staphylococcus aureus 209-P, read-out: Minimum inhibition concentration (MIC)): 0.78 µg/mL (≈ 1.99 µM)
MIC ([7]; pH 7.2, Staphylococcus aureus Smith (A), read-out: Minimum inhibition concentration (MIC)): 0.78 µg/mL (≈ 1.99 µM)
MIC ([8]; pH 7.2, Staphylococcus aureus 226, read-out: Minimum inhibition concentration (MIC)): 0.4 µg/mL (≈ 1.02 µM)
MIC (Eschericihia coli 3100): 6.25 µg/mL (≈ 16 µM)
MIC [9]: 12.5 µg/mL (≈ 31.9 µM)
MIC (Escherichia coli 76-2): 3.12 µg/mL (≈ 7.97 µM)
MIC ([10]; R12Z338, pH 7.2, read-out: Minimum inhibition concentration (MIC)): 6.25 µg/mL (≈ 16 µM)
MIC ([11]; 3020Y60, pH 7.2, Klebsiella pneumoniae 3020 Y-60, 1**: gentamicin, producing adenylsynthetase, read-out: Minimum inhibition concentration (MIC)): 50 µg/mL (≈ 128 µM)
MIC [12]: 3.12 µg/mL (≈ 7.97 µM)
MIC [13]: 0.78 µg/mL (≈ 1.99 µM)
MIC ([14]; R9KY8516, pH 7.2, P. aeruginosa R9 KY8516, 3**: kanamycin, producing acetyltransferase, read-out: Minimum inhibition concentration (MIC)): 25 µg/mL (≈ 63.9 µM)
MIC (Serratia marcescens 1065): 6.25 µg/mL (≈ 16 µM)
MIC ([15]; R19KY8348, pH 7.2, E. coli R19 KY8348, 4**: gentamicin, producing acetyltransferase type I, read-out: Minimum inhibition concentration (MIC)): > 100 µg/mL
MIC ([16]; R4KY8511, pH 7.2, P. aeruginosa R4 KY8511, 4**: gentamicin, producing acetyltransferase type I, read-out: Minimum inhibition concentration (MIC)): > 100 µg/mL
MIC [17]: 3.12 µg/mL (≈ 7.97 µM)
MIC ([18]; R5KY8512, pH 7.2, P. aeruginosa R5 KY8512, 6**: neomycin, producing phosphotransferase type I and type II, read-out: Minimum inhibition concentration (MIC)): 12.5 µg/mL (≈ 31.9 µM)
MIC (Providencia sp 164): 12.5 µg/mL (≈ 31.9 µM)
MIC [19]: 0.16 µg/mL (≈ 0.409 µM)
MIC (Bacillus subtilis KY4273): 0.16 µg/mL (≈ 0.409 µM)
MIC [20]: 0.32 µg/mL (≈ 0.817 µM)
MIC [21]: 0.64 µg/mL (≈ 1.63 µM)
MIC [22]: 1.25 µg/mL (≈ 3.19 µM)
MIC [23]: 0.32 µg/mL (≈ 0.817 µM)
MIC [24]: 0.63 µg/mL (≈ 1.61 µM)

NC[C@H]1O[C@H](O[C@H]2[C@H](O)[C@@H](O[C@H]3O[C@H](CO)[C@@H](O)[C@H](N)[C@H]3O)[C@H](N)C[C@@H]2N)[C@H](O)[C@@H](O)[C@@H]1O [KA, kanamycin A, reference compound]
MIC (Escherichia coli NIHTC-2; Escherichia coli, NIHTC2, pH 7.2, read-out: Minimum inhibition concentration (MIC)): 1.56 µg/mL (≈ 3.22 µM)
MIC ([1]; GN2411, pH 7.2, read-out: Minimum inhibition concentration (MIC)): 3.12 µg/mL (≈ 6.44 µM)
MIC [2]: > 100 µg/mL
MIC (Proteus vulgaris JJ): 1.56 µg/mL (≈ 3.22 µM)
MIC ([3]; Pseudomonas aeruginosa, pH 7.2, read-out: Minimum inhibition concentration (MIC)): 25 µg/mL (≈ 51.6 µM)
MIC ([4]; Pseudomonas aeruginosa, UCLA4184, pH 7.2, read-out: Minimum inhibition concentration (MIC)): > 100 µg/mL
MIC ([5]; ENTERITIDIS, pH 7.2, read-out: Minimum inhibition concentration (MIC)): 3.12 µg/mL (≈ 6.44 µM)
MIC (Shigella sonnei ATCC9290): 3.12 µg/mL (≈ 6.44 µM)
MIC ([6]; Staphylococcus aureus, 209P, pH 7.2, read-out: Minimum inhibition concentration (MIC)): 0.4 µg/mL (≈ 0.826 µM)
MIC ([7]; Staphylococcus aureus, pH 7.2, read-out: Minimum inhibition concentration (MIC)): 0.4 µg/mL (≈ 0.826 µM)
MIC ([8]; pH 7.2, read-out: Minimum inhibition concentration (MIC)): 0.78 µg/mL (≈ 1.61 µM)
MIC (Eschericihia coli 3100): 3.12 µg/mL (≈ 6.44 µM)
MIC [9]: > 100 µg/mL
MIC (Escherichia coli 76-2): > 100 µg/mL
MIC ([10]; R12Z338, pH 7.2, E. coli R12 Z-338, 1**: gentamicin, producing adenylsynthetase, read-out: Minimum inhibition concentration (MIC)): 100 µg/mL (≈ 206 µM)
MIC ([11]; Klebsiella pneumoniae, 3020Y60, pH 7.2, read-out: Minimum inhibition concentration (MIC)): > 100 µg/mL
MIC [12]: > 100 µg/mL
MIC [13]: 12.5 µg/mL (≈ 25.8 µM)
MIC ([14]; R9KY8516, pH 7.2, read-out: Minimum inhibition concentration (MIC)): > 100 µg/mL
MIC (Serratia marcescens 1065): 100 µg/mL (≈ 206 µM)
MIC ([15]; R19KY8348, pH 7.2, read-out: Minimum inhibition concentration (MIC)): 1.56 µg/mL (≈ 3.22 µM)
MIC ([16]; R4KY8511, pH 7.2, read-out: Minimum inhibition concentration (MIC)): 100 µg/mL (≈ 206 µM)
MIC [17]: > 100 µg/mL
MIC ([18]; R5KY8512, pH 7.2, read-out: Minimum inhibition concentration (MIC)): > 100 µg/mL
MIC (Providencia sp 164): > 100 µg/mL
